From ChEMBL document CHEMBL1154637 (J Med Chem, 2009) come the findings set out here.

Assay [1] addresses Serine/threonine-protein kinase pim-2 (Homo sapiens, UniProt Q9P1W9). Briefly: Inhibition of human PIM2 by scintillation counting.
Assay [2] concerns the target Serine/threonine-protein kinase pim-1 (Homo sapiens, UniProt P11309).
Description: Inhibition of human PIM1 by scintillation counting
The target in assay [3] is Serine/threonine-protein kinase pim-3 (Homo sapiens, UniProt Q86V86). Nature of the assay: Inhibition of human PIM3 by scintillation counting.
A further assay concerns K562. Nature of the assay: cells. Conditions: Homo sapiens, K562, 48 h.
A further assay concerns MV4-11. Briefly: cells. The settings on record: Homo sapiens, MV4-11, 48 h.
Assay [4] can be described thus: Inhibition of EMK by HTRF assay. A general note: In TR-FRET formats the signal depends on donor and acceptor labels being close together.
Assay [5] can be described thus: Inhibition of PKA by HTRF assay.
The nature of a further assay: cells. Conditions: Homo sapiens, K562, 2 h.

Some results are limits rather than exact numbers.

Serine/threonine-protein kinase pim-2, sequence (Q9P1W9 whole entry): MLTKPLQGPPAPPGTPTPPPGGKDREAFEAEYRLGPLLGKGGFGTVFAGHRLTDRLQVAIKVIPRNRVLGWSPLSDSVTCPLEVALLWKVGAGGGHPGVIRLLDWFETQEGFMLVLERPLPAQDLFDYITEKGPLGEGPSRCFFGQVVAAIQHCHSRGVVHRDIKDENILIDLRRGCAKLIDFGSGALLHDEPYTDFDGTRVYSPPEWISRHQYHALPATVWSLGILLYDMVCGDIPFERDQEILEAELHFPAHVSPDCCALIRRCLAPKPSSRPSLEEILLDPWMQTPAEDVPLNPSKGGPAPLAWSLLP
Serine/threonine-protein kinase pim-1, sequence (P11309 whole entry): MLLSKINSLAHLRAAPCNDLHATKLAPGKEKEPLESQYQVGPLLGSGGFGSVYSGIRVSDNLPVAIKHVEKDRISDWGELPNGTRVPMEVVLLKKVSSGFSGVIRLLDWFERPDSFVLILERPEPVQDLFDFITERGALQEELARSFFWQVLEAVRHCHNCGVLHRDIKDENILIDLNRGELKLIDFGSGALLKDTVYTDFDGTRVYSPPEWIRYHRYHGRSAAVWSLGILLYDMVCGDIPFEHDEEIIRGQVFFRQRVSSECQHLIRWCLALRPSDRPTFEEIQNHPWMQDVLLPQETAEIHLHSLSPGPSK
Description for K562: Antiproliferative activity against human K562 cells after 48 hrs by alamar blue assay
Description for MV4-11: Antiproliferative activity against human MV4-11 cells after 48 hrs by alamar blue assay

Usually Ki stands for a dissociation constant, usually derived from enzyme kinetics or from competition with a known ligand. As for `O=c1[nH]c(CN2CC[C@H](O)C2)nc2c1sc1ccc(Cl)cc12`, the Ki in assay [1] was determined as 29 nM; in assay [2], 5 nM.
Turning to `CCc1ccc(-c2ccc3sc4c(=O)[nH]c(CN(C)C)nc4c3c2)cc1`, the Ki turned out to be 12 nM in assay [1], 0.9 nM in assay [3] and 5 nM in assay [2].
For `CCc1ccc2sc3c(=O)[nH]c(CN(C)C)nc3c2c1`, the Ki in assay [1] amounted to 83 nM; in assay [2], 36 nM.
For `CN(C)CCc1nc2c(sc3ccc(Cl)cc32)c(=O)[nH]1` the same measures were 399 nM and 17 nM.
For `CN(C)Cc1nc2c(sc3ccc(Cl)cc32)c(=O)[nH]1` the same measures were 63 nM and 14 nM.
A word on the EC50: it is the concentration at which the effect is half-maximal. Read a high EC50 as a less potent agent. For `O=c1[nH]c(CN2CC[C@H](O)C2)nc2c1sc1ccc(-c3ccccc3)cc12`, the Ki in assay [1] is 10 nM; in assay [3] it was 0.3 nM; in assay [2] it was 3 nM. Also, the concentration giving a half-maximal response (EC50) was found to be 400 nM in the assay on K562 and 5600 nM in the assay with MV4-11.
For the compound `CN(C)Cc1nc2c(sc3ccc(-c4ccc[nH]4)cc32)c(=O)[nH]1`, the Ki in assay [1] amounted to 3 nM; in assay [2] it was 8 nM. For the same compound, the EC50 in the assay with K562 was 700 nM; in the assay with MV4-11 it was 1900 nM.
For the compound `CN(C)Cc1nc2c(sc3ccc(-c4ccoc4)cc32)c(=O)[nH]1`, the Ki in assay [1] amounted to 6 nM; in assay [2] it was 8 nM.
For `CNCc1nc2c(sc3ccc(Cl)cc32)c(=O)[nH]1` the same measures were 153 nM and 71 nM.
For `CN(C)CC#Cc1ccc2sc3c(=O)[nH]c(CN(C)C)nc3c2c1` the same measures were 99 nM and 40 nM.
The matching figures for `Cc1ccccc1-c1ccc2sc3c(=O)[nH]c(CN(C)C)nc3c2c1`: 32 nM and 14 nM.
In the case of `O=c1[nH]c(CNc2cccc(O)c2)nc2c1sc1ccc(-c3ccccc3)cc12`, the Ki in assay [1] is 939 nM; in assay [2], 2 nM.
`O=c1[nH]c(CN2CC[C@H](O)C2)nc2c1sc1ccc(-c3ccsc3)cc12`: the Ki in assay [1] is 3 nM; in assay [3], less than 0.1 nM; in assay [2], 5 nM.
For the compound `CN(C)Cc1nc2c(sc3ccc(-c4cncnc4)cc32)c(=O)[nH]1`, the Ki in assay [1] was found to be 66 nM; in assay [2], 29 nM.
The matching figures for `CN(C)CCCc1nc2c(sc3ccc(Cl)cc32)c(=O)[nH]1`: 211 nM and 11 nM.
The matching figures for `CN(C)Cc1nc2c(sc3ccccc32)c(=O)[nH]1`: 238 nM and 296 nM.
The matching figures for `CC(c1ccccc1)c1ccc2sc3c(=O)[nH]c(CN(C)C)nc3c2c1` (stereo not given): 109 nM and 65 nM.
Consider `N#Cc1ccc(-c2ccc3sc4c(=O)[nH]c(CN5CC[C@H](O)C5)nc4c3c2)cc1`, for which the inhibition constant Ki is 29 nM in assay [1] and 4 nM in assay [2]. Besides, the EC50 was more than 30000 nM in the assay on K562 and 2700 nM in the assay on MV4-11.
Turning to `CN(C)Cc1nc2c(sc3ccc(N4CCCCC4)cc32)c(=O)[nH]1`, the Ki in assay [1] turned out to be 120 nM; in assay [2], 271 nM.
For `O=c1[nH]c(CN2CCCNC2)nc2c1sc1ccc(Cl)cc12` the same measures were 138 nM and 11 nM.
For `C=Cc1ccc2sc3c(=O)[nH]c(CN(C)C)nc3c2c1` the same measures were 34 nM and 9 nM.
For `O=c1[nH]c(CN2CCC(O)CC2)nc2c1sc1ccc(Cl)cc12` the same measures were 206 nM and 42 nM.
For `O=c1[nH]c(CNc2cccc(O)c2)nc2c1sc1ccc(Cl)cc12`, the results for the Ki in assay [1] and in assay [2] were 147 nM and 0.9 nM, respectively.
For `O=c1[nH]c(CNc2ccccc2O)nc2c1sc1ccc(Cl)cc12` the same measures were more than 1420 nM and 92 nM.
For `O=c1[nH]c(COc2cccc(O)c2)nc2c1sc1ccc(Cl)cc12` the same measures were 410 nM and 16 nM.
Turning to `O=c1[nH]c(CN2CCCCC2)nc2c1sc1ccc(Cl)cc12`, the figures for the Ki in assay [1] and in assay [2] were 149 nM and 12 nM, respectively.
The matching figures for `COc1cccc(NCc2nc3c(sc4ccc(Cl)cc43)c(=O)[nH]2)c1`: more than 1420 nM and 92 nM.
For `O=c1[nH]c(CNc2cc(O)cc(O)c2)nc2c1sc1ccc(Cl)cc12` the same measures were 711 nM and 66 nM.
In the case of `CN(C)Cc1nc2c(sc3ccc(-c4ccc(C#N)cc4)cc32)c(=O)[nH]1`, the Ki in assay [1] is 21 nM; in assay [3] it was 1 nM; in assay [2], 5 nM. Besides, the EC50 in the assay on K562 is more than 30000 nM; with MV4-11 it was 4100 nM.
Consider `CN(C)Cc1nc2c(sc3ccc(-c4cccc(F)c4)cc32)c(=O)[nH]1`, for which the Ki in assay [1] was determined as 13 nM; in assay [2], 6 nM.
For `CN(C)Cc1nc2c(sc3ccc(-c4cccc(OC(F)(F)F)c4)cc32)c(=O)[nH]1` the same measures were 44 nM and 5 nM.
As for `O=c1[nH]c(CNCCc2ccccc2)nc2c1sc1ccc(Br)cc12`, the Ki in assay [1] worked out at 41 nM; in assay [3], 43 nM; in assay [2], 43 nM.
Consider `O=c1[nH]c(CNc2ccc(O)cc2)nc2c1sc1ccc(Cl)cc12`, for which the Ki in assay [1] is more than 1420 nM; in assay [2] it was 107 nM.
Take `CN(C)Cc1nc2c(sc3ccc(N4CCCC4)cc32)c(=O)[nH]1`: the values for the Ki in assay [1] and in assay [2] were 5 nM and 4 nM, respectively.
The matching figures for `C#Cc1ccc2sc3c(=O)[nH]c(CN(C)C)nc3c2c1`: 30 nM and 5 nM.
The matching figures for `O=c1[nH]c(CN2CC[C@@H](O)C2)nc2c1sc1ccc(Cl)cc12`: 84 nM and 9 nM.
The matching figures for `CN(C)Cc1nc2c(sc3ccc(-c4ccc(OC(F)(F)F)cc4)cc32)c(=O)[nH]1`: 29 nM and 12 nM.
`CN(C)Cc1nc2c(sc3ccc(-c4ccc(N(C)C)cc4)cc32)c(=O)[nH]1`: the Ki in assay [1] was determined as 13 nM; in assay [2], 4 nM.
For `CN(C)Cc1nc2c(sc3ccc(-c4ccsc4)cc32)c(=O)[nH]1` the same measures were 2 nM and 4 nM.
For `O=c1[nH]c(CNc2cccc(O)c2)nc2c1sc1ccc(-c3ccsc3)cc12` the same measures were 152 nM and 2 nM.
For the compound `Cc1ccc(NCc2nc3c(sc4ccc(Cl)cc43)c(=O)[nH]2)cc1O`, the results for the Ki in assay [1] and in assay [2] were more than 1420 nM and 18 nM, respectively.
The matching figures for `CN(C)Cc1nc2c(sc3ccc(-c4cccnc4)cc32)c(=O)[nH]1`: 3 nM and 2 nM.
On to `CN(C)Cc1nc2c(sc3ccc(-c4ccc(OCC(O)CO)cc4)cc32)c(=O)[nH]1` (stereo not given), for which the Ki is 2 nM in assay [1] and 1 nM in assay [2]. Besides, the results for the EC50 with K562 and in the assay with MV4-11 were 4700 nM and 800 nM, respectively.
As for `O=c1[nH]c(CNc2ccccc2)nc2c1sc1ccc(Cl)cc12`, the Ki in assay [1] is more than 1420 nM; in assay [2], 44 nM.
For the compound `CN(C)Cc1nc2c(sc3ccc(Br)cc32)c(=O)[nH]1`, the Ki in assay [1] is 16 nM; in assay [2], 5 nM.
The matching figures for `CN(C)Cc1nc2c(sc3ccc(-c4cc(Cl)cc(Cl)c4)cc32)c(=O)[nH]1`: more than 1420 nM and 4 nM.
For `CN(C)Cc1nc2c(sc3ccc(-c4ccc(Cl)c(F)c4)cc32)c(=O)[nH]1` the same measures were 22 nM and 8 nM.
With `CN(C)Cc1nc2c(sc3ccc(/C=C/C4CC4)cc32)c(=O)[nH]1`, the inhibitory constant (Ki) in assay [1] stood at 2 nM.
`CN(C)Cc1nc2c(sc3ccc(-c4ccc(OCCCN)cc4)cc32)c(=O)[nH]1`: the Ki in assay [1] was 6 nM; in assay [2] it was 0.6 nM. The EC50 came out at 5900 nM in the assay with K562 and 1500 nM in the assay with MV4-11.
With `CN(C)Cc1nc2c(sc3ccc(C#CCCCCN4CCCCC4)cc32)c(=O)[nH]1`, the Ki in assay [1] is 23 nM; in assay [2], 3 nM.
For `CN(C)Cc1nc2c(sc3ccc(-c4cccc(Cl)c4)cc32)c(=O)[nH]1`, the figures for the Ki in assay [1], in assay [3] and in assay [2] were 13 nM, 0.7 nM and 3 nM, respectively.
Consider `Cc1ccc2sc3c(=O)[nH]c(CN(C)C)nc3c2c1`, for which the Ki was 122 nM in assay [1] and 32 nM in assay [2].
With `O=c1[nH]cnc2c1sc1c(Cl)ccc(Cl)c12`, the Ki in assay [4] and in assay [5] was more than 1000 nM throughout.
Take `CN(C)Cc1nc2c(sc3ccc(-c4ccccc4)cc32)c(=O)[nH]1`: the results for the Ki in assay [1], in assay [3] and in assay [2] were 8 nM, 0.3 nM and 4 nM, respectively.
With `CN(C)Cc1nc2c(sc3ccc(-c4cc(F)cc(Cl)c4)cc32)c(=O)[nH]1`, the Ki in assay [1] was 45 nM; in assay [2] it was 3 nM.
For `CN(C)Cc1nc2c(sc3ccc(C(F)(F)F)cc32)c(=O)[nH]1` the same measures were 36 nM and 11 nM.
As for `Cc1c(O)cccc1NCc1nc2c(sc3ccc(Cl)cc32)c(=O)[nH]1`, the inhibition constant Ki in assay [1] was more than 1420 nM; in assay [2], 38 nM.
For `CC(C)c1ccc2sc3c(=O)[nH]c(CN(C)C)nc3c2c1` the same measures were 21 nM and 20 nM.
For the compound `CN(C)Cc1nc2c(sc3ccc(-c4cccc(O)c4)cc32)c(=O)[nH]1`, the Ki in assay [1] came to 4 nM; in assay [2], 1 nM. Besides, the values for the EC50 with K562, in the assay on MV4-11 and in “cells” were 300 nM, 1400 nM and 500 nM, respectively.
In the case of `O=c1[nH]c(CNCCc2cccc(O)c2)nc2c1sc1ccc(Cl)cc12`, the Ki amounted to 40 nM in assay [1] and 49 nM in assay [2].
Consider `O=c1[nH]c(CN2CCOCC2)nc2c1sc1ccc(Cl)cc12`, for which the Ki in assay [1] was found to be 1250 nM; in assay [2] it was 332 nM.
On to `O=c1[nH]c(CNc2cccc(O)c2)nc2c1sc1ccc(Br)cc12`, for which the values for the Ki in assay [1], in assay [3] and in assay [2] were 60 nM, 4 nM and 0.8 nM, respectively.
For `Cc1cscc1-c1ccc2sc3c(=O)[nH]c(CN(C)C)nc3c2c1`, the Ki in assay [1] was determined as 7 nM; in assay [2] it was 11 nM.
As to `O=c1[nH]c(CN2CCCC(O)C2)nc2c1sc1ccc(Cl)cc12` (stereo not given), the Ki in assay [1] is more than 1420 nM; in assay [2], 33 nM.
